Measurements taken from PubChem BioAssay AID2060333 (Molecular Pharmacology Branch, DTP, NCI, 2025).
“And” between values parts separate entries of the source, which are not always exact repeats. Equal values may be shown once. Each block holds one compound with its values, some of them ahead of it.

Test system: 845751-090-R-J2-PDC tumor spheroid viability
Assay: Anticancer human tumor 845751-090-R-J2-PDC patient-derived head and neck squamous carcinoma cell line growth inhibition [IpAb]
Settings: spheroids with HUVEC and MSC; for viability, T/C: stronger effect = lower value
Procedure, shortened: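 Multi-cell spheroids of 60% tumour cells, 25% HUVEC and 15% MSC in ultra-low-attachment U-bottom wells, treated with agents combined with ipatasertib or abemaciclib. Half-log ranges top out near clinical Cmax, or 10 microM when Cmax is unknown.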

[1] = curve of first compound, second compound 0.1 µM
[2] = curve of first compound, second compound 0.316 µM
[3] = curve of first compound, second compound 1 µM
[4] = second compound 0.1 µM, first compound 0.0316 µM
[5] = second compound 0.1 µM, first compound 0.1 µM
[6] = second compound 0.1 µM, first compound 0.316 µM
[7] = second compound 0.1 µM, first compound 1 µM
[8] = second compound 0.1 µM, first compound 3.16 µM
[9] = second compound 0.1 µM, first compound 10 µM
[10] = second compound 0.316 µM, first compound 0.0316 µM
[11] = second compound 0.316 µM, first compound 0.1 µM
[12] = second compound 0.316 µM, first compound 0.316 µM
[13] = second compound 0.316 µM, first compound 1 µM
[14] = second compound 0.316 µM, first compound 3.16 µM
[15] = second compound 0.316 µM, first compound 10 µM
[16] = second compound 1 µM, first compound 0.0316 µM
[17] = second compound 1 µM, first compound 0.1 µM
[18] = second compound 1 µM, first compound 0.316 µM
[19] = second compound 1 µM, first compound 1 µM
[20] = second compound 1 µM, first compound 3.16 µM
[21] = second compound 1 µM, first compound 10 µM
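Further: spheroids exposed to compounds for 7 days before readout.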
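Wherever viability, T/C is given: CTG3D luminescence normalised so that 100% = DMSO vehicle control.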

- IC50 (curve of compound): 6.49 µM and > 10 µM
Structure (SMILES): C=CC(=O)N1CCN(c2nc(=O)n(-c3c(C)ccnc3C(C)C)c3nc(-c4c(O)cccc4F)c(F)cc23)C(C)C1 (configuration not stated)
- viability, T/C (compound 0.0316 µM): 84.1% and 78.2%
- viability, T/C (compound 0.1 µM): 88.8% and 74.3%
- viability, T/C (compound 0.316 µM): 98.2% and 105%
- viability, T/C (compound 1 µM): 95.9% and 88.2%
- viability, T/C (compound 3.16 µM): 82.6% and 77.3%
- viability, T/C (compound 10 µM): 30.3% and 68.4%

Structure (SMILES): C=CCn1c(=O)c2cnc(Nc3ccc(N4CCN(C)CC4)cc3)nc2n1-c1cccc(C(C)(C)O)n1 + CCN1CCN(Cc2ccc(Nc3ncc(F)c(-c4cc(F)c5nc(C)n(C(C)C)c5c4)n3)nc2)CC1
- IC50 (curve of first compound, second compound 0.01 µM): > 10 µM
- IC50 (curve of first compound, second compound 0.0316 µM): 4.17 µM
- IC50 [1]: 2 µM
- IC50 [2]: 8.97 µM
- IC50 [3]: > 10 µM
- viability, T/C (second compound 0.01 µM, first compound 0.0316 µM): 104%
- viability, T/C (second compound 0.01 µM, first compound 0.1 µM): 68.3%
- viability, T/C (second compound 0.01 µM, first compound 0.316 µM): 68.3%
- viability, T/C (second compound 0.01 µM, first compound 1 µM): 57.4%
- viability, T/C (second compound 0.01 µM, first compound 3.16 µM): 50.8%
- viability, T/C (second compound 0.01 µM, first compound 10 µM): 48.9%
- viability, T/C (second compound 0.0316 µM, first compound 0.0316 µM): 66.4%
- viability, T/C (second compound 0.0316 µM, first compound 0.1 µM): 71.4%
- viability, T/C (second compound 0.0316 µM, first compound 0.316 µM): 62.2%
- viability, T/C (second compound 0.0316 µM, first compound 1 µM): 60.8%
- viability, T/C (second compound 0.0316 µM, first compound 3.16 µM): 53.1%
- viability, T/C (second compound 0.0316 µM, first compound 10 µM): 40.8%
- viability, T/C [4]: 66.8%
- viability, T/C [5]: 64.8%
- viability, T/C [6]: 60.8%
- viability, T/C [7]: 47.7%
- viability, T/C [8]: 50.5%
- viability, T/C [9]: 43.2%
- viability, T/C [10]: 59%
- viability, T/C [11]: 68.7%
- viability, T/C [12]: 69.2%
- viability, T/C [13]: 60.3%
- viability, T/C [14]: 59.8%
- viability, T/C [15]: 49.1%
- viability, T/C [16]: 88.9%
- viability, T/C [17]: 97.6%
- viability, T/C [18]: 83.9%
- viability, T/C [19]: 107%
- viability, T/C [20]: 95.7%
- viability, T/C [21]: 66.7%

Structure (SMILES): C=CC(=O)N1CCN(c2nc(=O)n(-c3c(C)ccnc3C(C)C)c3nc(-c4c(O)cccc4F)c(F)cc23)C(C)C1 (configuration not stated) + CC(C)NCC(C(=O)N1CCN(c2ncnc3c2C(C)CC3O)CC1)c1ccc(Cl)cc1
- IC50 [1]: < 0.0316 µM
- IC50 [2]: < 0.0316 µM
- IC50 [3]: < 0.0316 µM
- IC50 (curve of first compound, second compound 3.16 µM): < 0.0316 µM
- IC50 (curve of first compound, second compound 10 µM): < 0.0316 µM
- viability, T/C [4]: 47.1%
- viability, T/C [5]: 46.7%
- viability, T/C [6]: 28.9%
- viability, T/C [7]: 36.3%
- viability, T/C [8]: 22.1%
- viability, T/C [9]: 10.7%
- viability, T/C [10]: 28.2%
- viability, T/C [11]: 30.3%
- viability, T/C [12]: 21.2%
- viability, T/C [13]: 24.9%
- viability, T/C [14]: 21.9%
- viability, T/C [15]: 13.8%
- viability, T/C [16]: 22.9%
- viability, T/C [17]: 25%
- viability, T/C [18]: 21.5%
- viability, T/C [19]: 28.2%
- viability, T/C [20]: 19.3%
- viability, T/C [21]: 7.88%
- viability, T/C (second compound 3.16 µM, first compound 0.0316 µM): 21.7%
- viability, T/C (second compound 3.16 µM, first compound 0.1 µM): 18.3%
- viability, T/C (second compound 3.16 µM, first compound 0.316 µM): 22.9%
- viability, T/C (second compound 3.16 µM, first compound 1 µM): 19.7%
- viability, T/C (second compound 3.16 µM, first compound 3.16 µM): 11.9%
- viability, T/C (second compound 3.16 µM, first compound 10 µM): 5.86%
- viability, T/C (second compound 10 µM, first compound 0.0316 µM): 15.2%
- viability, T/C (second compound 10 µM, first compound 0.1 µM): 12.3%
- viability, T/C (second compound 10 µM, first compound 0.316 µM): 12.2%
- viability, T/C (second compound 10 µM, first compound 1 µM): 12.5%
- viability, T/C (second compound 10 µM, first compound 3.16 µM): 8.32%
- viability, T/C (second compound 10 µM, first compound 10 µM): 3.28%
